From patent US20030134859A1 (SANKYO COMPANY, LIMITED, priority 2000, published 2003)
pEC50, pIC50: −log10 of the molar value. Where a name gives a salt, the structure may show the parent alone.

What was measured:
human PPAR γ 2 [1] = biological target: T1, human PPAR γ 2 (Homo sapiens, UniProt P37231); test: PPAR γ transcriptional activity, luciferase reporter, test compound alone; assay type: cell-based; conditions: concentration indicating Emax/2, MG63 cells transfected with pSG5-hPPARg and pGV-P2-PPRE, 24 hr
T1 construct: expressed in transfected cells; host or cells: human osteosarcoma MG63, transiently co-transfected with pSG5-hPPARg and the reporter pGV-P2-PPRE
T1 sequence (P37231 1-505): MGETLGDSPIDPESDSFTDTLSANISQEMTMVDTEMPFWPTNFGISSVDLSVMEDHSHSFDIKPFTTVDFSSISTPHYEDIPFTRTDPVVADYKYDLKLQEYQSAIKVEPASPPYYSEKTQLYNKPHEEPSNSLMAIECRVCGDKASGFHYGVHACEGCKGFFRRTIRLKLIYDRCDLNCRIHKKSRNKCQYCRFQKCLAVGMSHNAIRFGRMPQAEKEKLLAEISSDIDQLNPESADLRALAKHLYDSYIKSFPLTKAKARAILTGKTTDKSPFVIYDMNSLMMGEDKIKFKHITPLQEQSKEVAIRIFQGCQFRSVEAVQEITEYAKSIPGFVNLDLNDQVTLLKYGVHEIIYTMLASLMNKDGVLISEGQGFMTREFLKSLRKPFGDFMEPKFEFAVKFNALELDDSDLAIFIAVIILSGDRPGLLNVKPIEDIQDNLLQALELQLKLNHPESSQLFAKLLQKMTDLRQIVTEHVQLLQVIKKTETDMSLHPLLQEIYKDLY
Experimental: The primers of the polymerase chain reaction (hereinafter “PCR”) were designed according to the gene sequence of human PPAR γ 2 (GenBANK accession No. D83233). In order to insert the genes into the BamHI site of the plasmid pSG5 ([…] CLONING SYSTEMS), Bgl II sites were added upstream and downstream of the genes encoding human PPAR γ 2 protein. For this, 2 kinds of polynucleotides shown in the sequence numbers 1 and 2 in the sequence table described below (hereinafter “S1” and “AS1”, respectively) were used as PCR primers.
In order to determine transcriptional activity via PPAR γ, 2 kinds of polynucleotides represented in sequence numbers 3 and 4 in the sequence table described below (hereinafter “S2” and “AS2”, respectively) were used for construction of the reporter plasmid having PPAR responsive element. The DNA fragment inserted was designed based on the gene sequence in the promoter region of rat acylCo-A oxidase (J. D. Tugwood, EMBO J., 11 (2), pp433-439 (1992)). For insertion of the DNA fragment into the reporter plasmid pGV-P2 (TOYO INK MFG CO., LTD), a NheI site and an XhoI site were added to the S2 and AS2, respectively.
Using cDNA library (Clontech) derived from human adipose tissue as a template, DNA oligomers S1 and AS1 that were synthesized in the procedure 1 as primers and Ex-Taq™ (TAKARA BIO INC.) as a thermostable DNA polymerase-PCR was carried out. As a result of the PCR, the c.a. 1500 bps DNA fragments were amplified. Each cycle consisted of incubation at 94° C. for 1 min for denaturation of the template, then at 55° C. for 30 sec for annealing of DNA oligomers the PCR primer, and then at 72° C. for 30 sec for extension of the chain. The obtained DNA fragments with approximately 1500 base pairs were digested at the Bgl II sites and were inserted into BamHI sites of pSG5. Thus a human PPAR γ expression plasmid named pSG5-hPPAR g was obtained. The nucleotide sequence of the inserted DNA fragment was confirmed to be identical sequence to the human PPAR γ 2 reported by the dideoxy method.
Vector pGV-P2 digestion products was prepared by digestion using the restriction enzymes, NheI and XhoI, and purified by 1.0% agarose-gel electrophoresis. The DNA oligomers, S2 and AS2 obtained in Procedure 2, were mixed together and were incubated in a hot bath at 94° C. for 1 min. After the annealing was partially broken, they were further incubated at 25° C. for 1 hr. Thus double-stranded DNA with annealing of S2 and AS2 was formed. Then, the terminus of the double-stranded DNA with annealing of S2 and AS2 was phosphorylated with DNA polynucleotide kinase (TOYOBO CO., LTD). After that, it was ligated to the pGV-P2 digestion products which were prepared previously using the NheI site and XhoI site. Thus the reporter plasmid pGV-P2-PPRE was obtained.
Using the plasmid obtained by the procedures 3 and 4, transformation of Escherichia coli HB-101 strain was carried out by conventional methods. HB-101 strain having the plasmid was incubated in L-broth medium (containing 10 g of trypton (Difco), 5 g of yeast extract (Difco), 5 g of sodium chloride in 1 L of aqueous solution) containing 100 μg/ml of ampicillin at 37° C. for 17 hrs. Then, each plasmid was purified by the alkaline-SDS method and employed for the gene transfection to mammalian cells. After mixing the pSG5-hPPARg, PGV-P2-PPRE and LipofectAMINE reagent (GIBCO BRL), the human osteosarcoma MG63 was transiently transfected. Then the cells were recovered. The recovered cells were plated on a 96-well plate so as to be 30,000 cells/well and cultured in a CO2 incubator (NAPCO) at 37° C. for 24 hr under the condition of 5% CO2, 95%-RH.
Various concentrations of the test compound alone were added to culturing medium of the cells prepared in the Procedure 5. After 24 hr of culturing, LT2.0 (TOYO INK MFG CO., LTD), a luciferase substrate, was added to the medium free culture plate. […]

human PPAR γ 2 [2] = biological target: T1, human PPAR γ 2; test: Inhibitory activity against PPAR γ transcription in the presence of agonist compound A, luciferase reporter; assay type: cell-based; conditions: in the presence of 10 nM compound A (agonist); MG63 cells transfected with pSG5-hPPARg and pGV-P2-PPRE; 24 hr

| SMILES | pEC50 (human PPAR γ 2 [1]) | pIC50 (human PPAR γ 2 [2]) |
| --- | --- | --- |
| Cc1ccc(NC(=O)c2cc([N+](=O)[O-])ccc2Cl)cc1 [Example 1, N-(4-Methylphenyl)-(2-chloro-5-nitrophenyl)carboxamide] | 6.66 | 7.48 |
| O=C(Nc1ccc(-c2ccccc2)cc1)c1cc([N+](=O)[O-])ccc1Cl [Example 2, N-(4-Phenylphenyl)-(2-chloro-5-nitrophenyl)carboxamide] | 6.08 | 8.72 |
| Cc1cnc(NC(=O)c2cc([N+](=O)[O-])ccc2Cl)s1 [Example 4, N-(5-Methylthiazol-2-yl)-(2-chloro-5-nitrophenyl)carboxamide] | 7.82 | 6.92 |
| O=C(Nc1cccc(-c2ccccc2)c1)c1cc([N+](=O)[O-])ccc1Cl [Example 5, N-(3-Phenylphenyl)-(2-chloro-5-nitrophenyl)carboxamide] | 6.40 | 7.09 |
| COc1ccc(NC(=O)c2cc([N+](=O)[O-])ccc2Cl)cc1-c1ccccc1 [Example 6, N-(4-Methoxy-3-phenyl)phenyl-(2-chloro-5-nitrophenyl)carboxamide] | 7.47 | 6.80 |
| O=C(Nc1ccccc1-c1ccccc1)c1cc([N+](=O)[O-])ccc1Cl [Example 7, N-(2-Phenylphenyl)-(2-chloro-5-nitrophenyl)carboxamide] | 6.57 | – |
| O=C(Nc1ccc(-c2ccccn2)cc1)c1cc([N+](=O)[O-])ccc1Cl [Example 8, N-[4-(2-Pyridyl)phenyl]-(2-chloro-5-nitrophenyl)carboxamide] | 6.59 | 8.23 |
| CCOC(=O)c1ccc(NC(=O)c2cc([N+](=O)[O-])ccc2Cl)cc1 [Example 26, N-(4-Ethoxycarbonylphenyl)-(2-chloro-5-nitrophenyl)carboxamide] | 8.68 | 8.20 |
| O=C(Nc1nc(-c2cccnc2)cs1)c1cc([N+](=O)[O-])ccc1Cl [Example 37, N-[4-(3-Pyridyl)thiazol-2-yl)-(2-chloro-5-nitrophenyl)carboxamide] | 6.29 | 7.82 |
| O=C(Nc1ccc2c3c(cccc13)CC2)c1cc([N+](=O)[O-])ccc1Cl [Example 54, N-(Acenaphthen-5-yl)-(2-chloro-5-nitrophenyl)carboxamide] | 8.33 | 6.47 |
| O=C(Nc1c(Cl)ncnc1Cl)c1cc([N+](=O)[O-])ccc1Cl [Example 81, N-(4,6-Dichloropyrimidin-5-yl)-(2-chloro-5-nitrophenyl)carboxamide] | 6.12 | 7.64 |
| O=C(Nc1nncs1)c1cc([N+](=O)[O-])ccc1Cl [Example 85, N-(1,3,4-Thiadiazol-2-yl)-(2-chloro-5-nitrophenyl)carboxamide] | 7.55 | 7.04 |
| O=C(Nc1cccc2nsnc12)c1cc([N+](=O)[O-])ccc1Cl [Example 86, N-(2,1,3-Benzothiazol-4-yl)-(2-chloro-5-nitrophenyl)carboxamide] | 7.96 | 6.15 |

Next, values leading:

| pEC50 (human PPAR γ 2 [1]) | pIC50 (human PPAR γ 2 [2]) | SMILES |
| --- | --- | --- |
| 7.47 | 8.12 | CCCCCc1ccc(NC(=O)c2cc([N+](=O)[O-])ccc2Cl)cc1 [Example 16, N-(4-Pentylphenyl)-(2-chloro-5-nitrophenyl)carboxamide] |
| 8.36 | 6.64 | CC(C)(C)c1cc(NC(=O)c2cc([N+](=O)[O-])ccc2Cl)cc(C(C)(C)C)c1O [Example 29, N-(3,5-Di-t-butyl-4-hydroxyphenyl)-(2-chloro-5-nitrophenyl)carboxamide] |
| 8.72 | 7.92 | O=C(Nc1cccc(NS(=O)(=O)c2ccccc2)c1)c1cc([N+](=O)[O-])ccc1Cl [Example 30, N-(3-Benzensulfonylaminophenyl)-(2-chloro-5-nitrophenyl)carboxamide] |
| 7.60 | 7.52 | O=C(Nc1nc(-c2ccccc2)cs1)c1cc([N+](=O)[O-])ccc1Cl [Example 35, N-(4-Phenylthiazol-2-yl)-(2-chloro-5-nitrophenyl)carboxamide] |
| 6.60 | 7.35 | O=C(Nc1nc(-c2ccccn2)cs1)c1cc([N+](=O)[O-])ccc1Cl [Example 38, N-[4-(2-Pyridyl)thiazol-2-yl)-(2-chloro-5-nitrophenyl)carboxamide] |
| 7.41 | 7.40 | Cc1ccccc1-c1csc(NC(=O)c2cc([N+](=O)[O-])ccc2Cl)n1 [Example 39, N-[4-(2-Methylphenyl)thiazol-2-yl]-(2-chloro-5-nitrophenyl)carboxamide] |
| 7.96 | 7.11 | O=C(Nc1nc(-c2cccc3ccccc23)cs1)c1cc([N+](=O)[O-])ccc1Cl [Example 41, N-[4-(1-Naphthyl)thiazol-2-yl]-(2-chloro-5-nitrophenyl)carboxamide] |
| 6.09 | 7.27 | Cc1ccc(-c2nc(NC(=O)c3cc([N+](=O)[O-])ccc3Cl)sc2C)cc1Cl [Example 46, N-[4-(3-Chloro-4-methylphenyl)-5-methylthiazol-2-yl]-(2-chloro-5-nitrophenyl)carboxamide] |
| 6.38 | 7.42 | Cc1nc(NC(=O)c2cc([N+](=O)[O-])ccc2Cl)sc1C [Example 47] |
| 8.18 | 6.92 | Cc1cccc(NC(=O)c2cc([N+](=O)[O-])ccc2Cl)n1 [Example 51, N-(6-Methylpyridin-2-yl)-(2-chloro-5-nitrophenyl)carboxamide] |
| 8.25 | 6.68 | Cc1ccc(NC(=O)c2cc([N+](=O)[O-])ccc2Cl)nc1 [Example 52, N-(5-Methylpyridin-2-yl)-(2-chloro-5-nitrophenyl)carboxamide] |
| 6.59 | – | O=C(Nc1cccc2cccnc12)c1cc([N+](=O)[O-])ccc1Cl [Example 57, N-(8-Quinolinyl)-(2-chloro-5-nitrophenyl)carboxamide] |
| 7.70 | 8.55 | Nc1ccc(NC(=O)c2cc([N+](=O)[O-])ccc2Cl)cc1 [Example 58, N-(4-Aminophenyl)-(2-chloro-5-nitrophenyl)carboxamide mono-hydrochloride] |
| 6.92 | – | COC(=O)c1sccc1NC(=O)c1cc([N+](=O)[O-])ccc1Cl [Example 66, N-(2-Methoxycarbonylthiophen-3-yl)-(2-chloro-5-nitrophenyl)carboxamide] |
| 6.59 | 6.40 | Cn1c(NC(=O)c2cc([N+](=O)[O-])ccc2Cl)nc2ccccc21 [Example 82, N-(1-Methylbenzimidazol-2-yl)-(2-chloro-5-nitrophenyl)carboxamide] |
